Marks after values point to notes of the source that are not given here.

The source of these data is US8476197B2, “Aminopropenoates as fungicides” (priority 2009, dated 2013).

The conditions of the data set: pH 2.7.
As to `CCOC(=O)C(C#N)=C(NC(C)C(C)(C)C)c1sccc1Br` (racemic) [Compound 921], the “Log P” value was 4.41^[a].

For the molecule `CCOC(=O)C(C#N)=C(NC(C)C(C)(C)C)c1sc(C)nc1C(F)(F)F` (racemic) [Compound 922], the “Log P” value is 4.21^[a].

Regarding `CCOC(=O)C(C#N)=C(NC(C)C(C)(C)C)c1ccsc1Br` (racemic) [Compound 923], the “Log P” value was 4.36^[a].

For `CCOC(=O)C(C#N)=C(NC(C)C(C)C)c1cn(C)cc1C(F)(F)F` (racemic) [Compound 987], the “Log P” value is 3.84^[a].

Consider `CCOC(=O)C(C#N)=C(NC(C)C(C)C)c1c(C(F)F)nn(C)c1F` (racemic) [Compound 1000], for which the “Log P” value is 3.53^[a].

Regarding `CCOC(=O)C(C#N)=C(NC(C)C(C)C)c1c(C(F)(F)F)nn(C)c1Cl` (racemic) [Compound 1001], the “Log P” value was 4.06^[a].

As for `CCOC(=O)C(C#N)=C(NC(C)C(C)C)c1cn(C)nc1C(C)(F)F` (racemic) [Compound 1002], the “Log P” value was 3.39^[a].

For the molecule `C=CCCCC(C=C)NC(=C(C#N)C(=O)OCC)c1c(C)nn(C)c1Cl` (racemic) [Compound 1013], the “Log P” value was 4.04^[a].

Take `C=CCCCC(C=C)NC(=C(C#N)C(=O)OCC)c1sccc1C(F)(F)F` (racemic) [Compound 1014]: the “Log P” value is 4.7^[a].

For `C=CCCCC(C=C)NC(=C(C#N)C(=O)OCC)c1ncc(C(F)(F)F)cc1Cl` (racemic) [Compound 1015], the “Log P” value is 4.82^[a].

With `C=CCCCC(C=C)NC(=C(C#N)C(=O)OCC)c1cn(C)nc1C(F)F` (racemic) [Compound 1016], the “Log P” value is 3.73^[a].

As to `C=CCCCC(C=C)NC(=C(C#N)C(=O)OCC)c1sccc1Br` (racemic) [Compound 1017], the “Log P” value was 4.67^[a].

`C=CCCCC(C=C)NC(=C(C#N)C(=O)OCC)c1ccsc1Br` (racemic) [Compound 1018]: the “Log P” value was 4.67^[a].

Regarding `CCOC(=O)C(C#N)=C(NC(C)CSc1cc(Cl)ccc1Cl)c1cn(C)nc1C(F)F` (racemic) [Compound 1235], the “Log P” value is 4.08^[a].

On to `CCOC(=O)C(C#N)=C(NC(C)CSc1ccc(Cl)c(Cl)c1)c1cn(C)nc1C(F)F` (racemic) [Compound 1236], for which the “Log P” value is 4.2^[a].

Take `CCOC(=O)C(C#N)=C(NC(C)COc1cccc(C(F)(F)F)c1)c1cn(C)nc1C(F)F` (racemic) [Compound 1237]: the “Log P” value is 3.92^[a].

Take `CCOC(=O)C(C#N)=C(NCC(c1ccccc1)C(C)C)c1cn(C)nc1C(F)F` (racemic) [Compound 1239]: the “Log P” value is 3.94^[a].

`CCOC(=O)C(C#N)=C(NC(C)C(=O)CC)c1cn(C)nc1C(F)F` (racemic) [Compound 1240]: the “Log P” value is 2.47^[a].

Regarding `CCOC(=O)C(C#N)=C(NC(C)COCc1ccccc1Cl)c1cn(C)nc1C(F)F` (racemic) [Compound 1241], the “Log P” value is 3.83^[a].

Turning to `CCOC(=O)C(C#N)=C(NC(C)COc1ccccc1C)c1cn(C)nc1C(F)F` (racemic) [Compound 1242], the “Log P” value was 3.78^[a].

Take `CCOC(=O)C(C#N)=C(NC(C)c1ccccn1)c1ccnc(C)c1Cl` (racemic) [Compound 1243]: the “Log P” value is 2.6^[a].

On to `CCOC(=O)C(C#N)=C(NC(C)c1nccs1)c1cn(C)nc1I` (racemic) [Compound 1247], for which the “Log P” value is 3.46^[a].

`CCOC(=O)C(C#N)=C(NC(C)c1ccccn1)c1cn(C)nc1I` (racemic) [Compound 1248]: the “Log P” value was 2.37^[a].

With `CCCC(C#N)NC(=C(C#N)C(=O)OCC)c1cn(C)nc1C(F)F` (racemic) [Compound 1250], the “Log P” value is 2.77^[a].

`CCOC(=O)C(C#N)=C(NC(C#N)CC)c1cn(C)nc1C(F)F` (racemic) [Compound 1251]: the “Log P” value is 2.45^[a].

With `CCOC(=O)C(C#N)=C(NC(C#N)CC(C)C)c1cn(C)nc1C(F)F` (racemic) [Compound 1252], the “Log P” value was 3.04^[a].

Consider `CCOC(=O)C(C#N)=C(NC(C)C(F)(F)F)c1cn(C)nc1C(F)F` (racemic) [Compound 1253], for which the “Log P” value was 2.92^[a].

As to `CCOC(=O)C(C#N)=C(NC(C)C#N)c1cn(C)nc1C(F)F` (racemic) [Compound 1254], the “Log P” value was 2.15^[a].

As for `CCNC(=O)C(C)NC(=C(C#N)C(=O)OCC)c1cn(C)nc1C(F)F` (racemic) [Compound 1256], the “Log P” value was 1.88^[a].

Take `CCOC(=O)C(C#N)=C(NC(C#N)c1cccc(Cl)c1Cl)c1cccnc1Cl` (racemic) [Compound 1257]: the “Log P” value is 3.69^[a].

As to `C#CCC(C#N)NC(=C(C#N)C(=O)OCC)c1cccnc1Cl` (racemic) [Compound 1258], the “Log P” value is 2.37^[a].

For `CCOC(=O)C(C#N)=C(NC(C#N)Cc1ccccc1)c1cccnc1Cl` (racemic) [Compound 1259], the “Log P” value is 3.02^[a].

For `CCOC(=O)C(C#N)=C(NC(c1ccc(N(C)C)cc1)C(F)(F)F)c1cccnc1Cl` (racemic) [Compound 1260], the “Log P” value is 3.99^[a].

Turning to `CCOC(=O)C(C#N)=C(NC(c1ccc(Cl)cc1)C(F)(F)F)c1cccnc1Cl` (racemic) [Compound 1261], the “Log P” value was 4.25^[a].

`CCOC(=O)C(C#N)=C(NC(Cc1ncccc1C)C(F)(F)F)c1cccnc1Cl` (racemic) [Compound 1262]: the “Log P” value is 3.04^[a].

Consider `CCOC(=O)C(C#N)=C(NC(C#N)c1ccc(Cl)cc1Cl)c1cccnc1Cl` (racemic) [Compound 1267], for which the “Log P” value was 3.83^[a].

With `CCOC(=O)C(C#N)=C(NC(C)C(=O)CC)c1cccnc1Cl` (racemic) [Compound 1270], the “Log P” value was 2.64^[a].

For `CCNC(=O)C(C#N)=C(NC(C)c1ccccn1)c1ccnc(C)c1Cl` (racemic) [Compound 1277], the “Log P” value is 2.7^[a].

Turning to `CC(NC(=C(C#N)C(=O)NC1CC1)c1cn(C)nc1C(F)F)c1nccs1` (racemic) [Compound 1279], the “Log P” value is 2.04^[a].

For `CC(NC(=C(C#N)C(=O)NC1CC1)c1cn(C)nc1C(F)F)c1ccccn1` (racemic) [Compound 1280], the “Log P” value is 1.84^[a].

`COCCNC(=O)C(C#N)=C(NC(C)c1nccs1)c1cn(C)nc1C(F)F` (racemic) [Compound 1287]: the “Log P” value was 1.96^[a].

For `COCCNC(=O)C(C#N)=C(NC(C)c1ccccn1)c1cn(C)nc1C(F)F` (racemic) [Compound 1288], the “Log P” value is 1.75^[a].

Take `C=CCNC(=O)C(C#N)=C(NC(C)c1ccccn1)c1cn(C)nc1C(F)F` (racemic) [Compound 1291]: the “Log P” value was 2.02^[a].

Turning to `C=CCNC(=O)C(C#N)=C(NC(C)c1nccs1)c1cn(C)nc1C(F)F` (racemic) [Compound 1292], the “Log P” value was 2.2^[a].

For `CCNC(=O)C(C#N)=C(NC(C)c1ccccn1)c1cn(C)nc1C(F)F` (racemic) [Compound 1293], the “Log P” value was 1.86^[a].

As for `CCNC(=O)C(C#N)=C(NC(C)c1nccs1)c1cn(C)nc1C(F)F` (racemic) [Compound 1294], the “Log P” value is 2.05^[a].

As for `CC#CC(C)NC(=C(C#N)C(=O)OCC)c1ccnc(Cl)c1Cl` (racemic) [Compound 1386], the “Log P” value was 3.44^[a].

Take `CCOC(=O)C(C#N)=C(NC(C)c1ncc(C)s1)c1ccnc(Cl)c1Cl` (racemic) [Compound 1389]: the “Log P” value is 3.33^[a].

For the molecule `CCCC(C)NC(=C(C#N)C(=O)OCC)c1ccnc(Cl)c1Cl` (racemic) [Compound 1390], the “Log P” value is 3.99^[a].

Consider `CCOC(=O)C(C#N)=C(NC(C)c1ccccn1)c1ccnc(Br)c1Cl` (racemic) [Compound 1391], for which the “Log P” value is 3.09^[a].

Take `CCOC(=O)C(C#N)=C(NC(C)c1ccccn1)c1ccnc(SC)c1Cl` (racemic) [Compound 1393]: the “Log P” value was 3.35^[a].

With `CCOC(=O)C(C#N)=C(NC(C)c1ccccn1)c1ccncc1C(F)(F)F` (racemic) [Compound 1394], the “Log P” value was 2.7^[a].

Consider `CCOC(=O)C(C#N)=C(NC(C)c1ccccn1)c1ccnc(Br)c1F` (racemic) [Compound 1395], for which the “Log P” value was 3^[a].

Take `CCOC(=O)C(C#N)=C(NC(C)c1ccccn1)c1ccnc(CC)c1Cl` (racemic) [Compound 1396]: the “Log P” value is 2.96^[a].

Regarding `CCCc1nccc(C(NC(C)c2ccccn2)=C(C#N)C(=O)OCC)c1Cl` (racemic) [Compound 1397], the “Log P” value was 3.29^[a].

For the molecule `CCOC(=O)C(C#N)=C(NC(C)c1ccccn1)c1ccnc(-c2ccccc2)c1Cl` (racemic) [Compound 1398], the “Log P” value was 3.33^[a].

On to `CCOC(=O)C(C#N)=C(NC(C)c1ccccn1)c1ccnc(Cl)c1Br` (racemic) [Compound 1404], for which the “Log P” value was 3.06^[a].

Regarding `CCOC(=O)C(C#N)=C(NC(C)c1nccs1)c1ccnc(Cl)c1Br` (racemic) [Compound 1406], the “Log P” value is 2.96^[a].

In the case of `C#CCNC(=O)C(C#N)=C(NC(C)c1ccccn1)c1cn(C)nc1C(F)F` (racemic) [Compound 1407], the “Log P” value is 1.89^[a].

Turning to `CCOC(=O)C(C#N)=C(NC(C)c1ccccn1)c1ccnc(Br)c1Br` (racemic) [Compound 1409], the “Log P” value is 3.11^[a].

For the molecule `CCNC(=O)C(C#N)=C(NC(C)c1ccccn1)c1ccnc(Cl)c1Br` (racemic) [Compound 1411], the “Log P” value is 2.55^[a].

`CCOC(=O)C(C#N)=C(NC(C)c1cnccn1)c1cccnc1Cl` (racemic) [Compound 1415]: the “Log P” value is 2.13^[a].

Regarding `CCOC(=O)C(C#N)=C(NC(C)C(C)OC)c1scnc1Cl` (racemic) [Compound 1480], the “Log P” value was 2.94^[a].

Regarding `CCOC(=O)C(C#N)=C(NC(C)C(C)CC)c1scnc1Cl` (racemic) [Compound 1481], the “Log P” value was 3.92^[a].

On to `CCOC(=O)C(C#N)=C(NC(C)c1nccs1)c1cnn(C)c1Cl` (racemic) [Compound 1483], for which the “Log P” value was 2.42^[a].

In the case of `CCOC(=O)C(C#N)=C(NC(C)c1ccccn1)c1cnn(C)c1Cl` (racemic) [Compound 1484], the “Log P” value was 2.35^[a].

Take `CCOC(=O)C(C#N)=C(NC(C)c1ccccn1)c1ccnc2ccccc12` (racemic) [Compound 1497]: the “Log P” value was 2.5^[a].
